Test results reported in PubChem BioAssay AID434930 (Broad Institute, 2010).
Inconclusive results are not listed. Activity calls are given as the source filed them.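 How the source made its calls: active means fitted EC50 no higher than ten times the highest tested concentration; inconclusive means flat fit with 30 to 70% inhibition, or poor fit; inactive means EC50 beyond ten times the top tested dose.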

System: C. albicans CaCi-2 + fluconazole, Alamar Blue growth, 48 h
Test: fluconazole-resistant Candida growth suppression, fluconazole present – C. albicans CaCi-2 (fluconazole-resistant clinical isolate), fluorescence, retest, dose response (AID 434930)

First: Cc1oc2c(F)c(F)c(F)c(F)c2c1S(=O)(=O)Nc1cccc(C(F)(F)F)c1
Second: O=c1c2cc(Br)ccc2nc(-c2cccc(C(F)(F)F)c2)n1O
The EC50 of the first is 2.6-fold higher: 10.8 µM for the first, 4.16 µM for the second.

Going from `Cc1ccc(C(=O)c2coc3c2C(=O)C(=O)c2ccccc2-3)cc1` to `Cc1ccc(C(=O)Nc2cccc(-c3cn4ccccc4n3)c2)cc1`, the EC50 rises from 2.89 µM to 6.79 µM (2.3-fold).

First: CC(C)COCc1ccc(O)c2ncccc12
Second: CCCC(=O)NC(c1ccccc1)c1ccc2cccnc2c1O (stereo not drawn)
The EC50 of the first is 29-fold higher: 16.5 µM for the first, 0.577 µM for the second. The second is the more potent here.

Going from `COc1cc2c(cc1NC(=O)c1ccco1)CCCC2` to `O=C(Nc1nnc(-c2ccc3c(c2)CCCC3)o1)c1ccc(Cl)cc1Cl`, the EC50 rises from 0.103 µM to 0.321 µM (3.1-fold).

First: O=C(Nc1sc2c(c1C(=O)c1ccc(Cl)cc1)CCCC2)c1cccnc1
Second: O=C(NNC1=C(C(=O)C(F)(F)F)CCC1)c1ccc(Cl)cc1
The EC50 of the first is 10-fold lower: 1.83 µM for the first, 18.8 µM for the second. The first is the more potent here.

First: Nc1nccnc1C(=O)Nc1nnc(SCc2ccc(Cl)cc2)s1
Second: O=C(Nc1nc(-c2ccccn2)cs1)c1ccc(Br)s1
The EC50 of the first is 5.3-fold lower: 2.11 µM for the first, 11.1 µM for the second. The first is the more potent here.

Compared with `Cc1nc2ccccc2cc1OCc1ccc(F)cc1`, `COc1ccc(-c2nnc(NC(=O)c3ccc(F)cc3)o2)cc1` is 17-fold lower in EC50: 8.45 µM for the first, 0.489 µM for the second. The second is the more potent here.

Going from `CCOC(=O)N1C(=O)C2(CCCCC2)N(c2ccc(C)cc2)C1=S` to `COc1ccc(-n2nc(C(=O)NCC(=O)N3CCN(c4ccccc4)CC3)c3ccccc3c2=O)c(OC)c1`, the EC50 rises from under 0.1 µM to 7.17 µM. The first is the more potent here.

Compared with `O=C(Nc1nnc(CCc2ccccc2)s1)c1ccco1`, `O=C(Nc1nnc(-c2ccco2)o1)c1ccc(Cl)cc1` is 2.4-fold lower in EC50: 3.08 µM for the first, 1.28 µM for the second. The second is the more potent here.

First: O=C(Oc1c(Cl)cc(Cl)c2cccnc12)c1cccs1
Second: CCCC(=O)NC(c1ccc(Cl)cc1)c1ccc2cccnc2c1O (stereo not drawn)
The EC50 of the first is 1.7-fold lower: 0.28 µM for the first, 0.485 µM for the second. The first is the more potent here.

Going from `Clc1ccc2c(c1)C(c1cccs1)=NNC(c1cccnc1)=N2` to `CC(C)N1CCc2c(sc(NC(=O)c3nc4ccccc4s3)c2C(N)=O)C1`, the EC50 rises from 0.0778 µM to 1.19 µM (15-fold).

`Cc1ccc(/C=C/C(=O)c2ccccc(=O)c2O)cc1C` was tested, and the EC50 was > 26 µM (inactive).
